# Legend:
# Settings in all cases: exposure time 48 h
# [1] = tested on: Caenorhabditis elegans N2; assay: lowest effective concentration for larval growth inhibition (size below effect threshold); higher = less potent
# In short: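 C. elegans N2 L1 larvae (50 per 96-well) were grown 48 h at 20°C in K-medium with killed bacteria, 1% DMSO and 0.5, 1, 5, 10, 50, 100 or 200 µM chemical. The Biosort measured per-worm extinction as size, and these were log-transformed into well means. The lowest effective concentration is the first dose where the plate-adjusted mean size drops under the 5.665 threshold and stays under it at higher doses.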
# [2] = tested on: Caenorhabditis elegans N2; assay: AC50 for larval growth inhibition (Hill fit); higher = less potent
# In short: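 After 48 h at 20°C in K-medium with killed OP50, 1% DMSO and 0.5–200 µM chemical, synchronised C. elegans N2 L1 larvae (50 per well, 96-well plates) were sized individually as extinction on a COPAS Biosort. These values were log-transformed and averaged per well, and wells with fewer than 10 worms were excluded. The AC50 was derived from a constrained Hill fit by weighted genetic-algorithm regression, and out-of-range values are censored.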
# [3] = tested on: Caenorhabditis elegans N2; assay: mean nematode size ln(EXT) after 48 h, plate-adjusted (DMSO control set to 6) (ln(EXT), control-adjusted); higher = larger nematodes / less growth inhibition
# In short: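 Each treatment used 4–6 wells of 50 synchronised C. elegans N2 L1 larvae, kept for 48 h at 20°C in K-medium with killed OP50, 1% DMSO and 0.5–200 µM chemical. Debris was excluded by a growth model after the Biosort measured per-worm extinction. Mean size per well came from natural-logged values and was plate-adjusted. That adjustment subtracted the vehicle control mean and then added 6.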
SMILES,lowest effective concentration [1],AC50 for larval growth inhibition [2],mean nematode size ln(EXT) (ln) ([3]; 0.5 µM),mean nematode size ln(EXT) (ln) ([3]; 1 µM),mean nematode size ln(EXT) (ln) ([3]; 5 µM),mean nematode size ln(EXT) (ln) ([3]; 10 µM),mean nematode size ln(EXT) (ln) ([3]; 50 µM),mean nematode size ln(EXT) (ln) ([3]; 100 µM),mean nematode size ln(EXT) (ln) ([3]; 200 µM)
"FC(F)(F)C(F)(F)C(F)(F)C(F)(F)C(F)(F)C(F)(F)CCI [1H,1H,2H,2H-Perfluorooctyl iodide]",200 µM,190 µM,5.99,5.98,5.95,5.96,5.94,5.86,4.39
"Oc1ccc(C(c2ccc(O)cc2)C(Cl)(Cl)Cl)cc1 [2,2-Bis(4-hydroxyphenyl)-1,1,1-trichloroethane (HPTE)]",50 µM,66.9 µM,6.16,6.15,6.1,6.01,5.25,4.61,4.12
"N#CC(Br)(Br)C(N)=O [2,2-Dibromo-3-nitrilopropionamide]",200 µM,> 200 µM,6.09,6.03,6.04,6.07,5.96,5.94,5.57
"Cc1ccc(C)c(O)c1C [2,3,6-Trimethylphenol]",200 µM,> 200 µM,5.88,6.02,5.94,5.93,5.93,5.9,5.65
"Oc1c(Cl)cc(Cl)cc1Cl [2,4,6-Trichlorophenol]",200 µM,> 200 µM,5.87,5.85,5.9,5.83,5.82,5.87,5.66
"CC(C)(C)c1cc(C(C)(C)C)c(O)c(C(C)(C)C)c1 [2,4,6-Tris(tert-butyl)phenol]",50 µM,> 200 µM,5.84,5.9,5.94,5.7,5.58,5.4,4.67
"CC(C)(c1ccccc1)c1ccc(O)c(C(C)(C)c2ccccc2)c1 [2,4-Bis(alpha,alpha-dimethylbenzyl)phenol]",10 µM,58.7 µM,6,5.67,5.74,5.45,4.67,4.3,3.8
"CC(C)(C)c1ccc(O)c(C(C)(C)C)c1 [2,4-Di-tert-butylphenol]",50 µM,186 µM,5.97,5.97,5.99,5.88,5.62,5.5,4.45
"Cc1ccc(N)cc1N [2,4-Diaminotoluene]",200 µM,> 200 µM,5.86,5.94,5.9,5.74,5.89,5.72,5.5
"O=[N+]([O-])c1ccc(O)c([N+](=O)[O-])c1 [2,4-Dinitrophenol]",200 µM,> 200 µM,5.82,5.79,5.78,5.83,5.83,5.75,5.52
"O=[N+]([O-])c1ccc(Oc2ccc(Cl)cc2Cl)cc1 [2,4-dichloro-1-(4-nitrophenoxy)benzene]",5 µM,5.16 µM,5.88,5.74,5.03,3.93,3.8,3.76,4.04
"CC(C)(C)OOC(C)(C)CCC(C)(C)OOC(C)(C)C [2,5-Dimethyl-2,5-bis(tert-butylperoxy)hexane]",200 µM,185 µM,5.81,5.83,5.81,5.79,5.78,5.79,4.23
"CCCOC(=O)c1ccc(C(=O)OCCC)nc1 [2,5-Pyridinedicarboxylic acid, dipropyl ester]",200 µM,> 200 µM,5.88,5.95,5.98,5.99,5.93,5.85,5.38
"CC(C)(C)c1cccc(C(C)(C)C)c1O [2,6-Di-tert-butylphenol]",200 µM,> 200 µM,6.07,5.99,6.03,6.07,5.91,5.88,5.19
Nc1ccc2c(c1)C(=O)c1ccccc1C2=O [2-Aminoanthraquinone],100 µM,53.9 µM,6.17,5.82,5.77,5.81,5.75,4.42,5.14
CCCCCC/C(C=O)=C\c1ccccc1 [2-Benzylideneoctanal],50 µM,28.8 µM,5.84,5.85,5.79,5.69,5.13,5.22,5.01
O=C(CCl)c1ccccc1 [2-Chloroacetophenone],200 µM,> 200 µM,5.82,5.84,5.82,5.48,5.82,5.8,4.95
Cc1ccccc1Cl [2-Chlorotoluene],200 µM,178 µM,6.08,6.06,5.92,6.02,5.98,6.04,3.3
CCCCCCCCOc1ccc(C(=O)c2ccccc2)c(O)c1 [2-Hydroxy-4-(octyloxy)benzophenone],50 µM,19.2 µM,5.91,5.98,5.92,5.95,5.61,5.56,5.64
O=C(O)CC(O)C(=O)O (stereo unspecified) [2-Hydroxybutanedioic acid],100 µM,> 200 µM,5.83,5.82,5.8,5.81,5.83,5.61,5.58
Sc1nc2ccccc2s1 [2-Mercaptobenzothiazole],100 µM,> 200 µM,5.83,5.81,5.8,5.76,5.69,5.59,5.57
Nc1ccc2ccccc2c1 [2-Naphthylamine],200 µM,> 200 µM,6,5.76,5.94,5.72,5.71,5.89,5.51

SMILES,lowest effective concentration [1],AC50 for larval growth inhibition [2],mean nematode size ln(EXT) (ln) ([3]; 0.5 µM),mean nematode size ln(EXT) (ln) ([3]; 1 µM),mean nematode size ln(EXT) (ln) ([3]; 5 µM),mean nematode size ln(EXT) (ln) ([3]; 10 µM),mean nematode size ln(EXT) (ln) ([3]; 50 µM),mean nematode size ln(EXT) (ln) ([3]; 100 µM),mean nematode size ln(EXT) (ln) ([3]; 200 µM)
Oc1ccccc1-c1ccccc1 [2-Phenylphenol],200 µM,179 µM,5.84,5.73,5.68,5.99,6.05,5.96,5.13
CCc1ccc(O)c(C(C)(C)C)c1 [2-tert-Butyl-4-ethylphenol],50 µM,> 200 µM,5.77,5.75,5.72,5.86,5.45,5.58,4.88
COc1ccc(O)c(C(C)(C)C)c1 [2-tert-Butyl-4-methoxy-phenol],200 µM,> 200 µM,5.78,5.98,5.87,5.84,5.94,5.8,5.54
Cc1ccc(C(C)(C)C)c(O)c1 [2-tert-Butyl-5-methylphenol],200 µM,> 200 µM,6.07,6.05,6.02,6.06,5.95,5.91,4.77
CC(C)(C)c1ccccc1O [2-tert-Butylphenol],200 µM,> 200 µM,5.96,5.94,5.97,5.92,5.81,5.81,4.94
"CC(C)(c1cc(Br)c(O)c(Br)c1)c1cc(Br)c(O)c(Br)c1 [3,3',5,5'-Tetrabromobisphenol A]",10 µM,28.3 µM,5.84,5.92,5.93,5.56,4.75,4.36,4.27
"C=C(C)C(=O)OCCC(F)(F)C(F)(F)C(F)(F)C(F)(F)C(F)(F)C(F)(F)F [3,3,4,4,5,5,6,6,7,7,8,8,8-Tridecafluorooctyl methacrylate]",50 µM,23 µM,5.88,5.84,5.84,5.73,5.6,5.45,5.57
"O=C(Nc1ccc(Cl)cc1)Nc1ccc(Cl)c(Cl)c1 [3,4,4'-Trichlorocarbanilide]",≤ 0.5 µM,0.964 µM,5.51,4.97,4.28,4.21,4.26,4.1,3.81
Oc1ccc2c(c1)-c1ccccc1C2 [3-Hydroxyfluorene],50 µM,97.8 µM,5.81,5.96,5.84,5.97,5.6,4.66,3.77
CCCCNC(=O)OCC#CI [3-Iodo-2-propynylbutylcarbamate],100 µM,101 µM,6.05,5.98,6.06,6.03,5.84,4.8,3.17
"Cc1cccc(N)c1N [3-Methylbenzene-1,2-diamine]",200 µM,> 200 µM,6.01,5.93,5.87,5.79,5.78,5.79,5.05
N#Cc1cccnc1 [3-Pyridinecarbonitrile],5 µM,18.2 µM,5.73,5.78,5.61,5.65,5.65,5.65,5.54
"Nc1ccc(Cc2ccc(N)cc2)cc1 [4,4'-Methylenedianiline]",200 µM,> 200 µM,5.98,5.73,5.91,5.78,5.87,5.92,5.53
"Nc1ccc(Oc2ccc(N)cc2)cc1 [4,4'-Oxydianiline]",200 µM,> 200 µM,5.84,5.87,5.84,5.83,5.54,5.83,5.39
"CN(C)c1ccc(Cc2ccc(N(C)C)cc2)cc1 [4,4'-methylenebis(N,N-dimethylaniline)]",100 µM,66.3 µM,5.92,5.8,5.81,5.86,5.74,5.17,5.04
"C=CCc1cc(S(=O)(=O)c2ccc(O)c(CC=C)c2)ccc1O [4,4'-sulfonylbis[2-(prop-2-en-1-yl)phenol]]",50 µM,190 µM,5.87,5.88,5.9,5.89,5.39,5.1,4.49
"CC(c1ccc(O)cc1)(c1ccc(O)cc1)c1ccc(O)cc1 [4,4’,4""-Ethane-1,1,1-triyltriphenol]",100 µM,79.3 µM,5.76,6.01,5.91,5.91,5.87,5.39,5.19
"CC(C)(C)CC(C)(C)c1ccc(O)cc1 [4-(1,1,3,3-Tetramethylbutyl)phenol]",50 µM,101 µM,6.09,6.01,6.04,5.97,5.53,4.62,3.54
CCC(C)(C)c1ccc(O)cc1 [4-(2-methylbutan-2-yl)phenol],200 µM,> 200 µM,5.8,5.81,5.74,5.76,5.75,5.92,4.97
CCC(C)c1ccc(O)cc1 (stereo unspecified) [4-(Butan-2-yl)phenol],200 µM,142 µM,6.03,6.09,6.07,6.08,6.05,6.02,5.52
"Nn1cnnc1 [4-Amino-4H-1,2,4-triazole]",200 µM,> 200 µM,5.81,5.85,5.83,5.8,5.57,5.78,5.36
Nc1ccc(N=Nc2ccccc2)cc1 [4-Aminoazobenzene],5 µM,31.4 µM,5.63,5.75,5.62,5.49,4.06,3.92,3.23

# Reference: the supplement of paper PMC4858399
